Results: PubChem BioAssay AID2060491 (Molecular Pharmacology Branch, DTP, NCI, 2025)
Values joined by “and” are separate entries in the source; they are usually repeats but may differ in a detail not shown here. Equal values may be shown once.

Test system: 857933-349-R-J2-PDC complex spheroids, viability
Assay: Anticancer human tumor 857933-349-R-J2-PDC patient-derived colon adenocarcinoma cell line growth inhibition [GQUAD]
Settings: for viability, T/C: stronger effect = lower value
Summary of the method: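 Multi-cell-type spheroids of tumor cells with HUVEC and mesenchymal stem cells, treated with drug combinations. Concentrations descend in half-log steps from near clinical Cmax, or from 10 microM where Cmax is unknown; viability read-out.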
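Also: spheroids exposed to compounds for one week before readout.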
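For viability, T/C in this document: percent viability relative to vehicle DMSO wells taken as 100%.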

## Cc1[nH]c2ccccc2c1CCNCc1ccc(/C=C/C(=O)NO)cc1 + Cc1cnc(CNC(=O)c2c(=O)c3ccc(N4CCCN(C)CC4)nc3n3c2sc2ccccc23)cn1
Curve of first compound, second compound 0.0316 µM
  IC50: 267 nM
Curve of first compound, second compound 0.1 µM
  IC50: 155 nM
Curve of first compound, second compound 0.316 µM
  IC50: < 0.999 nM
Curve of first compound, second compound 1 µM
  IC50: < 0.999 nM
Curve of first compound, second compound 3.16 µM
  IC50: < 0.999 nM
Curve of first compound, second compound 10 µM
  IC50: < 0.999 nM
Second compound 0.0316 µM, first compound 0.000999 µM
  viability, T/C: 91%
Second compound 0.0316 µM, first compound 0.00316 µM
  viability, T/C: 93.7%
Second compound 0.0316 µM, first compound 0.00999 µM
  viability, T/C: 106%
Second compound 0.0316 µM, first compound 0.0316 µM
  viability, T/C: 86.5%
Second compound 0.0316 µM, first compound 0.0999 µM
  viability, T/C: 93.8%
Second compound 0.0316 µM, first compound 0.316 µM
  viability, T/C: 42.5%
Second compound 0.1 µM, first compound 0.000999 µM
  viability, T/C: 51.7%
Second compound 0.1 µM, first compound 0.00316 µM
  viability, T/C: 65.6%
Second compound 0.1 µM, first compound 0.00999 µM
  viability, T/C: 65.6%
Second compound 0.1 µM, first compound 0.0316 µM
  viability, T/C: 77%
Second compound 0.1 µM, first compound 0.0999 µM
  viability, T/C: 75.5%
Second compound 0.1 µM, first compound 0.316 µM
  viability, T/C: 22.2%
Second compound 0.316 µM, first compound 0.000999 µM
  viability, T/C: 20.1%
Second compound 0.316 µM, first compound 0.00316 µM
  viability, T/C: 27.2%
Second compound 0.316 µM, first compound 0.00999 µM
  viability, T/C: 28.9%
Second compound 0.316 µM, first compound 0.0316 µM
  viability, T/C: 47.6%
Second compound 0.316 µM, first compound 0.0999 µM
  viability, T/C: 37.1%
Second compound 0.316 µM, first compound 0.316 µM
  viability, T/C: 3.64%
Second compound 1 µM, first compound 0.000999 µM
  viability, T/C: 4.8%
Second compound 1 µM, first compound 0.00316 µM
  viability, T/C: 4.9%
Second compound 1 µM, first compound 0.00999 µM
  viability, T/C: 6.18%
Second compound 1 µM, first compound 0.0316 µM
  viability, T/C: 9.89%
Second compound 1 µM, first compound 0.0999 µM
  viability, T/C: 5.17%
Second compound 1 µM, first compound 0.316 µM
  viability, T/C: 0.17%
Second compound 3.16 µM, first compound 0.000999 µM
  viability, T/C: 2.36%
Second compound 3.16 µM, first compound 0.00316 µM
  viability, T/C: 3.21%
Second compound 3.16 µM, first compound 0.00999 µM
  viability, T/C: 2.34%
Second compound 3.16 µM, first compound 0.0316 µM
  viability, T/C: 1.12%
Second compound 3.16 µM, first compound 0.0999 µM
  viability, T/C: 0.55%
Second compound 3.16 µM, first compound 0.316 µM
  viability, T/C: 0.15%
Second compound 10 µM, first compound 0.000999 µM
  viability, T/C: 0.3%
Second compound 10 µM, first compound 0.00316 µM
  viability, T/C: 0.24%
Second compound 10 µM, first compound 0.00999 µM
  viability, T/C: 0.43%
Second compound 10 µM, first compound 0.0316 µM
  viability, T/C: 0.42%
Second compound 10 µM, first compound 0.0999 µM
  viability, T/C: 0.37%
Second compound 10 µM, first compound 0.316 µM
  viability, T/C: 0.26%

## Cc1cccc(N(C)C(=O)C2C(O)CCN2c2nc(C)cc(C(F)(F)F)c2C#N)c1 (centres undefined)
Compound 0.0316 µM
  viability, T/C: 104% and 102% and 105%
Compound 0.1 µM
  viability, T/C: 93.1% and 96.1% and 98.8%
Compound 0.316 µM
  viability, T/C: 107% and 103% and 101%
Compound 1 µM
  viability, T/C: 91.1% and 105% and 94.8%
Compound 3.16 µM
  viability, T/C: 114% and 105% and 106%
Compound 10 µM
  viability, T/C: 91.3% and 104% and 91.7%
Curve of compound
  IC50: > 10000 nM
